Assay results published in ChEMBL document CHEMBL1201861, “Genomics of Drug Sensitity in Cancer screening data, Wellcome Trust Sanger Institute”.

Legend:
Assay in all cases: cells
Format in all cases: functional, cell-based
COLO-792 = conditions: Homo sapiens
Description: SANGER: Inhibition of human COLO-792 cell growth in a cell viability assay.

D-336MG = conditions: Homo sapiens
Description: SANGER: Inhibition of human D-336MG cell growth in a cell viability assay.

DU-145 = conditions: Homo sapiens
Description: SANGER: Inhibition of human DU-145 cell growth in a cell viability assay.

Detroit 562 = conditions: Homo sapiens;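 note: growth inhibition of human Detroit 562 cells, read out by a cell viability assay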
Description: SANGER: Inhibition of human Detroit562 cell growth in a cell viability assay.

EFM-19 = conditions: Homo sapiens;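 note: growth inhibition of human EFM-19 cells, measured in a cell viability assay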
Description: SANGER: Inhibition of human EFM-19 cell growth in a cell viability assay.

EFO-27 = conditions: Homo sapiens;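 note: growth inhibition of EFO-27 cells, read out with a cell viability assay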
Description: SANGER: Inhibition of human EFO-27 cell growth in a cell viability assay.

ESS-1 = conditions: Homo sapiens;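 note: growth inhibition of human ESS-1 cells, read out by a cell viability assay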
Description: SANGER: Inhibition of human ESS-1 cell growth in a cell viability assay.

GP5d = conditions: Homo sapiens;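 note: growth inhibition of human GP5d cells, read out with a cell viability assay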
Description: SANGER: Inhibition of human GP5d cell growth in a cell viability assay.

H4 = conditions: Homo sapiens
Description: SANGER: Inhibition of human H4 cell growth in a cell viability assay.

HCC1419 = conditions: Homo sapiens;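 note: growth inhibition of human HCC1419 cells, read out as cell viability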
Description: SANGER: Inhibition of human HCC1419 cell growth in a cell viability assay.

HCC1937 = conditions: Homo sapiens;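 note: growth inhibition measured with a cell viability read-out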
Description: SANGER: Inhibition of human HCC1937 cell growth in a cell viability assay.

HCC 2998 = conditions: Homo sapiens;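 note: growth inhibition of human HCC2998 cells, measured with a cell viability read-out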
Description: SANGER: Inhibition of human HCC2998 cell growth in a cell viability assay.

HMV-2 cell line = conditions: Homo sapiens;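 note: growth inhibition of HMV-II cells, read out with a cell viability assay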
Description: SANGER: Inhibition of human HMV-II cell growth in a cell viability assay.

HN = conditions: Homo sapiens
Description: SANGER: Inhibition of human HN cell growth in a cell viability assay.

HOP-92 = conditions: Homo sapiens;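 note: cell viability readout, with IC50 reflecting inhibition of HOP-92 cell growth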
Description: SANGER: Inhibition of human HOP-92 cell growth in a cell viability assay.

HSC-4 = conditions: Homo sapiens;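 note: growth inhibition of human HSC-4 cells, read out with a cell viability assay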
Description: SANGER: Inhibition of human HSC-4 cell growth in a cell viability assay.

HT-1080 = conditions: Homo sapiens
Description: SANGER: Inhibition of human HT-1080 cell growth in a cell viability assay.

HT-3 = conditions: Homo sapiens;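 note: growth inhibition measured with a cell viability readout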
Description: SANGER: Inhibition of human HT-3 cell growth in a cell viability assay.

HT55 = conditions: Homo sapiens;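 note: cell viability readout measuring growth inhibition of human HT55 cells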
Description: SANGER: Inhibition of human HT55 cell growth in a cell viability assay.

HuO9 = conditions: Homo sapiens;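 note: growth inhibition of HuO9 cells, read out with a cell viability assay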
Description: SANGER: Inhibition of human HuO9 cell growth in a cell viability assay.

IGR-1 = conditions: Homo sapiens;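 note: growth inhibition of human IGR-1 cells, read out with a cell viability assay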
Description: SANGER: Inhibition of human IGR-1 cell growth in a cell viability assay.

IGROV-1 = conditions: Homo sapiens;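 note: reduction of IGROV-1 cell growth, read out with a viability assay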
Description: SANGER: Inhibition of human IGROV-1 cell growth in a cell viability assay.

Kasumi 1 = conditions: Homo sapiens;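 note: growth inhibition of human Kasumi-1 cells, read out by a cell viability assay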
Description: SANGER: Inhibition of human KASUMI-1 cell growth in a cell viability assay.

KOSC-2 = conditions: Homo sapiens;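 note: growth inhibition of KOSC-2 cells, read out by a cell viability assay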
Description: SANGER: Inhibition of human KOSC-2 cell growth in a cell viability assay.

KP-4 = conditions: Homo sapiens;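 note: human KP-4 cells, with growth inhibition read out through a cell viability assay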
Description: SANGER: Inhibition of human KP-4 cell growth in a cell viability assay.

LCLC-97TM1 = conditions: Homo sapiens;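 note: cell viability assay measuring growth inhibition of human LCLC-97TM1 cells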
Description: SANGER: Inhibition of human LCLC-97TM1 cell growth in a cell viability assay.

LoVo = conditions: Homo sapiens;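 note: growth inhibition of human LoVo cells, read out with a cell viability assay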
Description: SANGER: Inhibition of human LoVo cell growth in a cell viability assay.

M059J = conditions: Homo sapiens;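 note: growth inhibition of M059J cells, read out with a cell viability assay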
Description: SANGER: Inhibition of human M059J cell growth in a cell viability assay.

NCI-H1437 = conditions: Homo sapiens;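 note: growth inhibition of human NCI-H1437 cells, read out by a cell viability assay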
Description: SANGER: Inhibition of human NCI-H1437 cell growth in a cell viability assay.

NCI-H1755 = conditions: Homo sapiens;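 note: cell viability readout used to measure growth inhibition of NCI-H1755 cells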
Description: SANGER: Inhibition of human NCI-H1755 cell growth in a cell viability assay.

NCI-H2009 = conditions: Homo sapiens;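 note: cell viability assay measuring inhibition of NCI-H2009 cell growth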
Description: SANGER: Inhibition of human NCI-H2009 cell growth in a cell viability assay.

NCI-H2052 = conditions: Homo sapiens;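 note: growth inhibition of NCI-H2052 cells, read out with a cell viability assay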
Description: SANGER: Inhibition of human NCI-H2052 cell growth in a cell viability assay.

NCI-H2087 = conditions: Homo sapiens;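 note: growth inhibition determined with a cell viability readout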
Description: SANGER: Inhibition of human NCI-H2087 cell growth in a cell viability assay.

NCI-H2452 = conditions: Homo sapiens;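 note: growth inhibition of NCI-H2452 cells, read out with a cell viability assay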
Description: SANGER: Inhibition of human NCI-H2452 cell growth in a cell viability assay.

NCI-H460 = conditions: Homo sapiens;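 note: cell viability assay scoring growth inhibition of human NCI-H460 cells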
Description: SANGER: Inhibition of human NCI-H460 cell growth in a cell viability assay.

NCI-H650 = conditions: Homo sapiens;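 note: growth inhibition of NCI-H650 cells, read out by a viability assay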
Description: SANGER: Inhibition of human NCI-H650 cell growth in a cell viability assay.

OAW-42 = conditions: Homo sapiens;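 note: growth inhibition of OAW-42 cells, read out with a cell viability assay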
Description: SANGER: Inhibition of human OAW-42 cell growth in a cell viability assay.

OVCAR-5 = conditions: Homo sapiens;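 note: growth inhibition of human OVCAR-5 cells, read out with a cell viability assay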
Description: SANGER: Inhibition of human OVCAR-5 cell growth in a cell viability assay.

RO82-W-1 = conditions: Homo sapiens;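 note: growth inhibition of human RO82-W-1 cells, measured with a cell viability assay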
Description: SANGER: Inhibition of human RO82-W-1 cell growth in a cell viability assay.

SJRH30 = conditions: Homo sapiens;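 note: growth inhibition of human SJRH30 cells, read out with a cell viability assay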
Description: SANGER: Inhibition of human SJRH30 cell growth in a cell viability assay.

SK-MEL-24 = conditions: Homo sapiens;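 note: growth inhibition read out by a cell viability assay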
Description: SANGER: Inhibition of human SK-MEL-24 cell growth in a cell viability assay.

T84 = conditions: Homo sapiens;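 note: growth inhibition measured with a cell viability readout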
Description: SANGER: Inhibition of human T84 cell growth in a cell viability assay.

CWR22R = conditions: Homo sapiens, 22Rv1;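 note: growth inhibition of 22Rv1 cells, read out with a cell viability assay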
Description: SANGER: Inhibition of human 22RV1 cell growth in a cell viability assay.

A2780 = conditions: Homo sapiens;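 note: growth inhibition of A2780 cells, read out with a cell viability assay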
Description: SANGER: Inhibition of human A2780 cell growth in a cell viability assay.

AU565 = conditions: Homo sapiens;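 note: cell viability assay measuring growth inhibition of human AU565 cells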
Description: SANGER: Inhibition of human AU565 cell growth in a cell viability assay.

BCPAP = conditions: Homo sapiens;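 note: growth inhibition of BCPAP cells, read out in a cell viability assay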
Description: SANGER: Inhibition of human BCPAP cell growth in a cell viability assay.

BXPC-3 = conditions: Homo sapiens;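 note: growth inhibition of human BxPC-3 cells, read out by a cell viability assay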
Description: SANGER: Inhibition of human BxPC-3 cell growth in a cell viability assay.

CAL-27 = conditions: Homo sapiens;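 note: Viability-based readout, IC50 reflecting inhibition of CAL-27 cell growth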
Description: SANGER: Inhibition of human CAL-27 cell growth in a cell viability assay.

VM-CUB-1 = conditions: Homo sapiens;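 note: cell viability assay measuring growth inhibition of the human VM-CUB-1 cell line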
Description: SANGER: Inhibition of human VM-CUB-1 cell growth in a cell viability assay.

YAPC = conditions: Homo sapiens;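 note: growth inhibition of YAPC cells, measured with a cell viability assay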
Description: SANGER: Inhibition of human YAPC cell growth in a cell viability assay.

COLO-679 = conditions: Homo sapiens
Description: SANGER: Inhibition of human COLO-679 cell growth in a cell viability assay.

C[C@]12O[C@H](C[C@]1(O)CO)n1c3ccccc3c3c4c(c5c6ccccc6n2c5c31)CNC4=O [LESTAURTINIB]
IC50 (COLO-792): > 2000 nM | IC50 (D-336MG): 193 nM | IC50 (DU-145): > 2000 nM | IC50 (Detroit 562): 236 nM | IC50 (EFM-19): 151 nM | IC50 (EFO-27): 1030 nM | IC50 (ESS-1): 682 nM | IC50 (GP5d): 177 nM | IC50 (H4): 13.5 nM | IC50 (HCC1419): > 2000 nM | IC50 (HCC1937): > 2000 nM | IC50 (HCC 2998): 554 nM | IC50 (HMV-2 cell line): 55.8 nM | IC50 (HN): 182 nM | IC50 (HOP-92): 909 nM | IC50 (HSC-4): 203 nM | IC50 (HT-1080): 40.3 nM | IC50 (HT-3): 449 nM | IC50 (HT55): > 2000 nM | IC50 (HuO9): 561 nM | IC50 (IGR-1): 1490 nM | IC50 (IGROV-1): 452 nM | IC50 (Kasumi 1): 19.1 nM | IC50 (KOSC-2): 327 nM | IC50 (KP-4): 568 nM | IC50 (LCLC-97TM1): 427 nM | IC50 (LoVo): 31.9 nM | IC50 (M059J): 516 nM | IC50 (NCI-H1437): > 2000 nM | IC50 (NCI-H1755): 185 nM | IC50 (NCI-H2009): 1230 nM | IC50 (NCI-H2052): 488 nM | IC50 (NCI-H2087): > 2000 nM | IC50 (NCI-H2452): 1540 nM | IC50 (NCI-H460): 1170 nM | IC50 (NCI-H650): 677 nM | IC50 (OAW-42): 349 nM | IC50 (OVCAR-5): 504 nM | IC50 (RO82-W-1): > 2000 nM | IC50 (SJRH30): 1890 nM | IC50 (SK-MEL-24): > 2000 nM | IC50 (T84): > 2000 nM | IC50 (CWR22R): 1400 nM | IC50 (A2780): 94 nM | IC50 (AU565): 1650 nM | IC50 (BCPAP): 970 nM | IC50 (BXPC-3): > 2000 nM | IC50 (CAL-27): 437 nM | IC50 (VM-CUB-1): 651 nM | IC50 (YAPC): > 2000 nM | IC50 (COLO-679): 383 nM

CCCS(=O)(=O)Nc1ccc(F)c(C(=O)c2c[nH]c3ncc(Cl)cc23)c1F [PLX-4720]
IC50 (COLO-792): > 10000 nM | IC50 (D-336MG): > 10000 nM | IC50 (DU-145): > 10000 nM | IC50 (Detroit 562): > 10000 nM | IC50 (EFM-19): > 10000 nM | IC50 (EFO-27): > 10000 nM | IC50 (ESS-1): > 10000 nM | IC50 (GP5d): > 10000 nM | IC50 (H4): 6220 nM | IC50 (HCC1419): > 10000 nM | IC50 (HCC1937): > 10000 nM | IC50 (HCC 2998): > 10000 nM | IC50 (HMV-2 cell line): > 10000 nM | IC50 (HN): > 10000 nM | IC50 (HOP-92): > 10000 nM | IC50 (HT-1080): 6110 nM | IC50 (HT-3): > 10000 nM | IC50 (HT55): > 10000 nM | IC50 (HuO9): > 10000 nM | IC50 (IGR-1): > 10000 nM | IC50 (IGROV-1): > 10000 nM | IC50 (KOSC-2): > 10000 nM | IC50 (KP-4): 2310 nM | IC50 (LCLC-97TM1): > 10000 nM | IC50 (LoVo): > 10000 nM | IC50 (M059J): > 10000 nM | IC50 (NCI-H1437): > 10000 nM | IC50 (NCI-H1755): > 10000 nM | IC50 (NCI-H2009): > 10000 nM | IC50 (NCI-H2052): > 10000 nM | IC50 (NCI-H2087): > 10000 nM | IC50 (NCI-H2452): > 10000 nM | IC50 (NCI-H460): > 10000 nM | IC50 (NCI-H650): > 10000 nM | IC50 (OAW-42): > 10000 nM | IC50 (OVCAR-5): > 10000 nM | IC50 (RO82-W-1): > 10000 nM | IC50 (SJRH30): > 10000 nM | IC50 (SK-MEL-24): > 10000 nM | IC50 (T84): > 10000 nM | IC50 (CWR22R): > 10000 nM | IC50 (A2780): > 10000 nM | IC50 (AU565): > 10000 nM | IC50 (BCPAP): 7220 nM | IC50 (BXPC-3): > 10000 nM | IC50 (CAL-27): > 10000 nM | IC50 (VM-CUB-1): > 10000 nM | IC50 (YAPC): > 10000 nM | IC50 (COLO-679): 1100 nM

CC[C@]1(O)C[C@@H]2CN(CCc3c([nH]c4ccccc34)[C@@](C(=O)OC)(c3cc4c(cc3OC)N(C)[C@H]3[C@@](O)(C(=O)OC)[C@H](OC(C)=O)[C@]5(CC)C=CCN6CC[C@]43[C@@H]65)C2)C1 [VINBLASTINE]
IC50 (COLO-792): 25.6 nM | IC50 (D-336MG): 7.25 nM | IC50 (DU-145): 98.7 nM | IC50 (Detroit 562): 5.53 nM | IC50 (EFM-19): 5.24 nM | IC50 (EFO-27): 7.45 nM | IC50 (ESS-1): 4.88 nM | IC50 (GP5d): 4.67 nM | IC50 (H4): 5.84 nM | IC50 (HCC1419): 57.2 nM | IC50 (HCC1937): > 100 nM | IC50 (HCC 2998): 19.8 nM | IC50 (HMV-2 cell line): 3.9 nM | IC50 (HN): 4.15 nM | IC50 (HOP-92): 25.9 nM | IC50 (HSC-4): 2.36 nM | IC50 (HT-1080): 4.23 nM | IC50 (HT-3): 37.1 nM | IC50 (HT55): > 100 nM | IC50 (HuO9): 12.6 nM | IC50 (IGR-1): 2.08 nM | IC50 (IGROV-1): > 100 nM | IC50 (Kasumi 1): 8.06 nM | IC50 (KOSC-2): 0.698 nM | IC50 (KP-4): 2.37 nM | IC50 (LCLC-97TM1): 5.49 nM | IC50 (LoVo): 6.03 nM | IC50 (M059J): 15.1 nM | IC50 (NCI-H1437): 7.76 nM | IC50 (NCI-H1755): 19.4 nM | IC50 (NCI-H2009): 53.4 nM | IC50 (NCI-H2052): 24.6 nM | IC50 (NCI-H2087): 30.5 nM | IC50 (NCI-H2452): 9.59 nM | IC50 (NCI-H460): 46.4 nM | IC50 (NCI-H650): 27.1 nM | IC50 (OAW-42): > 100 nM | IC50 (OVCAR-5): 13.6 nM | IC50 (RO82-W-1): 5.57 nM | IC50 (SJRH30): 59.4 nM | IC50 (SK-MEL-24): 31.5 nM | IC50 (T84): > 100 nM | IC50 (CWR22R): 9.82 nM | IC50 (A2780): 4.61 nM | IC50 (AU565): 3.45 nM | IC50 (BCPAP): 2.33 nM | IC50 (BXPC-3): 8.01 nM | IC50 (CAL-27): 2.09 nM | IC50 (VM-CUB-1): 4.28 nM | IC50 (YAPC): 87 nM | IC50 (COLO-679): > 100 nM
